Source: patent US20160160189A1, “Truncated Constructs of RIPK3 and Related Uses” (ST. JUDE CHILDREN'S RESEARCH HOSPITAL, priority 2013, published 2016)
Peptide text beside a SMILES is read from it. * marks the point of attachment. Cbz = O=C(OCc1ccccc1)*; CH2F = FC*

Legend:
[1] = system: Cells expressing RIPK3ΔC-FKBPx2; assay: Homodimerizer-induced truncated RIPK3 necrosis, PI uptake; format: cell-based; details: homodimerizer 1-100 nM, PI uptake at 3 hrs
Procedure: FIG. 6 provides a schematic for inducible RIPK-necrosis. Two systems for inducible RIPK-necrosis. […] Cell death in cells expressing RIPK1-FRB/RIPK3-FKBP and treated with heterodimerizer, and death was detected with annexin V-FITC. Death was inhibited by necrostatin-1 (not shown) (FIG. 6B). Cells expressing RIPK3ΔC-FKBPx2, treated with homodimerizer (1-100 nM); death was detected at 3 hrs by PI uptake. No effect of zVAD-fmk or necrostatin was observed (FIG. 6B).
An inducible dimer system has been employed to trigger homodimerization of caspase-8 in cells (27). The data provided herein support methods to induce RIPK-dependent necrosis by related approaches (FIG. 6A). Heterodimerization of RIPK1 and RIPK3 results in necrosis (see FIG. 6B) which is enhanced by inhibition of caspases and blocked by inhibition of RIPK1 (with nec1, data not shown). In contrast, truncated RIPK3 (lacking the RHIM domain for interaction with RIPK1) can only be oligomerized when FKBP domains (e.g., for example, two domains) that allow multiple monomers to be brought together by the dimerizing agent. Addition of the homodimerization agent to cells expressing this construct induces extremely rapid necrosis that that depends on the kinase activity of RIPK3, but is not affected by inhibition of caspases or nec1 treatment (FIG. 6C).

[2] = system: RIPK3 necrosome complex (RIPK1, caspase-8); assay: Anti-FLAG immunoprecipitation of necrosome complexes; format: cell-based, murine; details: RIPK3-1xFv, AP1 30 minutes; zVAD 50 μM, Nec1 30 μM
Procedure: Immunoprecipitation of necrosome complexes were carried out using rabbit anti-FLAG antibodies, and TruBlot IP reagents (Rockland Immunochemicals) to eliminate non-specific signals from immunoglobulin heavy and light chains. Briefly, cell lines were treated as indicated and lysed in NP40 buffer (30 mM Tris, 150 mM NaCl, and 1% NP40) supplemented with protease inhibitors. Twenty micrograms of each sample were reserved for “input,” while 500 μg of total protein from each sample were immunoprecipitated with 0.5 μg antibody conjugated to 30 μL TruBlot anti-Rabbit IgG beads Immunocomplexes were washed 4 times in NP40 buffer, eluted by boiling, then run on western blot. Western blots were analyzed using standard primary antibodies, but TruBlot anti-Rabbit and anti-Mouse HRP-conjugated 14 secondary antibodies were used. A standard anti-Rat-HRP secondary was used to detect caspase-8.

[3] = system: NIH-3T3 cells expressing RIPK3^ΔC-2xFv; assay: AP1-induced RIPK3 oligomerization cell death, IncuCyte imaging; format: cell-based, murine; details: zVAD 50 μM, Nec1 30 μM
Description: (§1) Consequently, two Fv domains were attached to the C-terminus of RIPK3, creating a RIPK3-2xFv construct, with the goal of promoting AP1-induced crosslinking and oligomerization independent of the RHIM domain. See, FIG. 12A. […] Compare, FIGS. 16A and 15A, respectively. […] Cells expressing this RHIM-deficient RIPK3^ΔC-2xFv construct were nonresponsive to TNF+zVAD, previously reported to be dependent on RIPK1 RHIM/RIPK3 RHIM interactions. See, FIG. 13G. […] See, FIG. 16C and FIG. 16D, respectively. […] See, FIG. 16E. […] See, FIG. 16F.
(§2) Cell death assays were carried out using a 2-color IncuCyte Zoom in-incubator imaging system (Essen Biosciences.) Briefly, this system allows fully automated imaging of cells at set intervals in phase contrast as well as both red and green fluorescent channels. Cell death assays were carried out by treating cells with death-inducing compounds in 24 well tissue culture vessels (100,000 cells/well), in the presence of 100 nM of the cell-impermeable DNA binding fluorescent dyes Sytox Green (Life Technologies 57020) or Yoyo-3 (Y3606), which are excluded from healthy cells but rapidly enter dying cells upon membrane permeabilization, in a manner analogous to propidium iodide.
(§3) Resulting images were analyzed using the software package supplied with the IncuCyte imager, which allows precise analysis of the number of Sytox Green or Yoyo-3 positive cells present in each image. For each experiment, a minimum of three separate wells were treated with each experimental condition, and a minimum of 4 image fields were assessed per well. Percent cell death was calculated by treating a minimum of three distinct wells in each experiment with 100 nM of the cell permeable fluorescent dye Syto Green (S7559), which allows quantification of the total number of cells present in each field. Dead cell events acquired via Sytox Green or Yoyo-3 staining were divided by this total cell number to yield percent cell death at each timepoint. Error bars represent standard deviation from the mean of a minimum of three independent wells. Each result depicted is representative of at least 4 distinct experiments, each of which contained at least 3 technical replicates.

[4] = system: NIH-3T3 cells expressing RIPK3-2xFv; assay: as above; format: cell-based, murine; details: AP1; zVAD 50 μM, Nec1 30 μM
Description: as §1, §2, §3

[5] = system: RIPK3 complexes; assay: DSS crosslinking of necrosome complexes resolved by western blotting; format: cell-based, murine; details: 30 nM AP1; zVAD 50 μM, Nec1 30 μM
Procedure: A confluent monolayer of the indicated cells was incubated with the appropriate treatment for 30 minutes at 37 degrees. Cells were lysed in a modified, Tris-free NP40 buffer (30 mM HEPES pH 7.4, 150 mM NaCl, and 1% NP40) without protease inhibitors. Protein lysate was quantified according to standard BCA assay (Pierce) and fifty micrograms of each sample was treated with 0.1 mM DSS crosslinking agent (Thermo Scientific, #21658) for 30 minutes at room temperature; the reaction was quenched by the addition of Tris-HCl pH 7.2 to a final concentration of 50 mM for 15 minutes. Crosslinked samples were analyzed by Western blot as described above, using the anti-2A primary antibody for detection.

SMILES | effect on homodimerizer-induced death [1] | effect of inhibitor on association of RIPK1 and caspase-8 with the RIPK3 complex [2] | effect of inhibitor on magnitude or kinetics of cell death [3] | effect of inhibitor on magnitude or kinetics of cell death [4] | effect of inhibitor on RIPK3 complexes following RIPK3-1xFv dimerization [5] | effect on homodimerizer-induced death ([1]; listed as nec1)
COC(=O)C[C@H](NC(=O)[C@H](C)NC(=O)[C@@H](NC(=O)OCc1ccccc1)C(C)C)C(=O)CF [zVAD] (Cbz-Val-Ala-Asp(OMe)-CH2F) | No effect | increased association of these proteins | did not alter magnitude or kinetics of cell death | did not alter magnitude or kinetics of cell death | increased shift of RIPK3 into higher molecular weight complexes | 
CN1C(=O)C(Cc2c[nH]c3ccccc23)NC1=S (centres unmarked) [necrostatin-1, Necrostatin-1] | No effect | eliminated formation of stable RIPK1- and caspase-8 containing complexes | did not alter magnitude or kinetics of cell death | did not alter magnitude or kinetics of cell death | diminished the appearance of these complexes | not affected
